This is an account of results in patent US20050142130A1, “Use of angiotensin-(1-7) for preventing and/or reducing the formation of neointima” (priority 2001, published 2005).

The structures appear in SMILES notation. “Also recorded” adds a separate entry of the source.

Data set [1] can be described thus: in vivo. The note with it: male, Wistar, rat, iv, 24 ug/kg/hour. The method, then:
(§1) Twenty-eight male Wistar rats (Harlan, Horst, Netherlands) weighing 450 to 520 grams were anesthetized with O2, N2O and isofluorane (Abbot B.V., Hoofddorp, Netherlands). A pre-mounted 2.5×9 mm BeStent™ 2 (Medtronic-Bakken Research, Maastricht, the Netherlands) was implanted in the abdominal aorta as previously described, or a sham operation was performed.^35 Subsequently, an osmotic minipump with a pumping rate of 0.25 μl/hour, lasting for 28 days (Model 2004, Alzet, Charles River Nederland, Maastricht, Netherlands), was implanted subcutaneously for drug delivery via a catheter in the jugular vein. Stented rats received angiotensin-(1-7) (Bachem, Weil am Rhein, Germany) (24 μg/kg/hour) (n=7) or saline (0.25 μl/hour) (n=10). Sham-operated rats received saline infusion (n=6). […] At this concentration, Ang-(1-7) binds to the Mas receptor and has subsequent functional effects. Five rats died peri-operatively due to rupture of the aorta.

In data set [2] the test system is stented rat abdominal aorta (neointimal formation). Put plainly: Rat abdominal aorta stenting model, histomorphometry and histology after 28 days. The data set is classed as in vivo, Wistar rats. Here is the method:
Twenty-eight male Wistar rats (Harlan, Horst, Netherlands) weighing 450 to 520 grams were anesthetized with O2, N2O and isofluorane (Abbot B.V., Hoofddorp, Netherlands). A pre-mounted 2.5×9 mm BeStentTM 2 (Medtronic-Bakken Research, Maastricht, the Netherlands) was implanted in the abdominal aorta as previously described, or a sham operation was performed.^35 Subsequently, an osmotic minipump with a pumping rate of 0.25 μl/hour, lasting for 28 days (Model 2004, Alzet, Charles River Nederland, Maastricht, Netherlands), was implanted subcutaneously for drug delivery via a catheter in the jugular vein. […] rats received angiotensin-(1-7) (Bachem, Weil am Rhein, Germany) (24 μg/kg/hour) (n=7) or saline (0.25 μl/hour) (n=10). Sham-operated rats received saline infusion (n=6). […] At this concentration, Ang-(1-7) binds to the Mas receptor and has subsequent functional effects. Five rats died peri-operatively due to rupture of the aorta. After 28 days, the animals were anesthetized and heparinized with 500 IU intravenously (Leo Pharma B.V., Breda, Netherlands). The abdominal aortas were subsequently harvested, fixed, embedded in methylmetacrylate, sectioned and stained for histological analysis. The endothelial function was tested in isolated thoracic aortic rings. Histomorphometrical analysis was performed on elastica van Gieson-stained sections by measurements of the proximal, middle and distal parts of each stent. To assess neointimal formation, areas within the external elastic lamina (EEL), internal elastic lamina (IEL) and lumen were measured by using digital morphometry. The neointimal area, media area, lumen area and the percentage of stenosis were calculated. The injury and inflammation scores were assessed as described by Schwartz et al. and Kornowski et al. Briefly, each strut was assigned a nominal score from 0 to 3 dependent upon the severity of the injury or inflammation. The average score is calculated by dividing the sum of scores by the number of struts. Total cell density and polymorphonuclear leukocyte density were determined in hematoxylin-eosin stained sections at ×400 magnification and expressed as ×100/mm^2. To assess a single measurement for each stent, the mean values of the proximal, middle and distal parts were calculated. Data are expressed as mean value±standard error of the mean (SEM). Statistical analysis between groups was performed by a student's t-test. Differences in dose-response curves between groups were tested by ANOVA for repeated measures using Greenhouse-Geisser correction for asphericity. Values of p=0.05 were considered statistically significant. For statistical analysis, SPSS software (Chicago, USA) was used.

The test system of data set [3] is thoracic aortic rings. Put plainly: Organ bath studies with isolated thoracic aortic rings (endothelial function) from stented, treated rats. The data set is classed as in vivo, Wistar rats. The method, then: as §1, with “BeStentTM” for “BeStent™”, “Stented” left out, “aorta. After 28 days, the animals were anesthetized and heparinized with 500 IU intravenously (Leo Pharma B.V., Breda, Netherlands). The abdominal aortas were subsequently harvested, fixed, embedded in methylmetacrylate, sectioned and stained for histological analysis. […] The endothelium-dependant vasodilatation was assessed by a cumulative dose of meatcholine (10 nM to 10 mM). […] Data are expressed as mean value±standard error of the mean (SEM). […]” for “aorta.”

[4] abbreviates: stented rats, 24 μg/kg/hour, mean ± SEM.

In data set [1], `CC[C@H](C)[C@H](NC(=O)[C@H](Cc1ccc(O)cc1)NC(=O)[C@@H](NC(=O)[C@H](CCCNC(=N)N)NC(=O)[C@@H](N)CC(=O)O)C(C)C)C(=O)N[C@@H](Cc1c[nH]cn1)C(=O)N1CCC[C@H]1C(=O)O` [Ang-(1-7), angiotensin-(1-7)] had a level at time molar of roughly 0.918 nM. Also, in data set [2] (setting [4]), the “Neointimal Area” value was 0.51 ± 0.05 mm^2, the “Neointimal Thickness” value is 112 ± 8 μm and the “Percentage Stenosis” value is 10.4 ± 1.0%. Besides, in data set [2] (vs saline control), the “IEL Area, change with treatment” value is −2%; the “Mean Injury Score, change with treatment” value was found to be 18.2%; the “Media Area, change with treatment” value is on record as −12.8%; the “Neointimal Area, change with treatment” value is recorded as −27.1%. In data set [2] (vs saline control), the “Neointimal Thickness, change with treatment” value is given as −20.6% and the “Percentage Stenosis, change with treatment” value was −25.7%. Moreover, in data set [2] (vs saline-treated stented rats), the “Decrease in neointimal area” value is reported as 27%, the “Decrease in neointimal thickness” value is listed as 21% and the “Decrease in percentage stenosis” value amounted to 26%. Moreover, in data set [3] (sodium nitrite 10 mM, phenylephrine precontracted rings, vs sham and control), the “Relaxation on endothelium-independent vasodilator sodium nitrite” value is listed as “equal; also recorded: No differences”. In data set [3] (thoracic aortic rings, phenylephrine 1 mM, mean ± SEM), this molecule yielded a Contraction on phenylephrine of 254±29 μm.
